For data set [1] the following is noted: cited from earlier work.
Data set [2] in a line: IMPAACT P1066: safety in HIV-1 infected pediatric patients. It is filed as in vivo, human. From the text: Raltegravir has been studied in 126 antiretroviral treatment-experienced HIV-1 infected pediatric patients 2 through 18 years of age, in combination with other antiretroviral agents in IMPAACT P1066. Of the 126 patients, 96 received only the final recommended dose through at least 24 weeks.

Where [3] appears, read: laboratory abnormality, pediatric patients.

SMILES strings stand for the structures.

The text below walks through data of patent publication US20140242178A1, “TASTE-MASKED FORMULATIONS OF RALTEGRAVIR” (priority 2011, published 2014).

For the compound `Cc1nnc(C(=O)NC(C)(C)c2nc(C(=O)NCc3ccc(F)cc3)c([O-])c(=O)n2C)o1.[K+]` [Raltegravir potassium, N-[(4-Fluorophenyl)methyl]-1,6-dihydro-5-hydroxy-1-methyl-2-[1-methyl-1-[[(5-methyl-1,3,4-oxadiazol-2-yl)carbonyl]amino]ethyl]-6-oxo-4-pyrimidinecarboxamide monopotassium salt], the solubility in acetonitrile entry in data set [1] (acetonitrile) is given as “very slightly soluble”. Also, the solubility in ethanol result in data set [1] (ethanol) is on record as “very slightly soluble”. In addition, the solubility in isopropanol entry in data set [1] (isopropanol) was “insoluble”. In addition, the solubility in methanol result in data set [1] (methanol) is reported as “slightly soluble”. In data set [1] (water), the solubility in water entry was “soluble”.

On to `Cc1nnc(C(=O)NC(C)(C)c2nc(C(=O)NCc3ccc(F)cc3)c(O)c(=O)n2C)o1` [Raltegravir], for which, in data set [2] (setting [3]), the “ALT increased, Grade 3” value came to 1.1%; the “AST increased, Grade 3” value is listed as 1.1%; the “AST increased, Grade 4” value is 1.1%; the “GGT increased, Grade 3” value came out at 1.1%. In data set [2] (setting [3]), the “bilirubin increased, Grade 3” value came to 1.1%; the “creatinine increased, Grade 3” value is on record as 1.1%; the “glucose abnormal, Grade 3” value is on record as 1.1%; the “glucose decreased, Grade 3” value was found to be 1.1%. In data set [2] (setting [3]), the “magnesium decreased, Grade 3” value is 1.1% and the “neutrophil count decreased, Grade 4” value is reported as 1.1%. The “neutrophil count decreased, Grade 3” value in data set [2] (laboratory abnormality, pediatric patients 2 through 18 years) stood at 7.4%. Also, in data set [2] (pediatric patients), the “Grade 3 or higher adverse reactions (psychomotor hyperactivity, abnormal behavior, insomnia)” value is listed as “one patient”; the “frequency, type and severity of drug related adverse reactions” value is given as “comparable to those observed in adults”; the “serious Grade 2 possibly drug related allergic rash” value was “one”.
